Tested on: P. acnes
Assay: Agar dilution method, growth of P. acnes and MIC, combinations with a fatty acid spike
Format: cell-based, Propionibacterium acnes
Set-up: key to Growth Index Plate 1 / Growth Index Plate 2 / Growth Index Plate 3 / Growth Index Avg: +++: confluent growth (comparable to control); ++: less confluent growth; +: marked reduction in growth to multiple tiny, single colonies; −: no growth present
Experimental: Several compounds including fatty acids such as DGLA, 15-OHEPA, and 15-HETrE were tested to determine their capacity to inhibit the growth of P. acnes. In an exemplary method, an agar dilution method was used to determine the minimum inhibitory concentration (MIC) of each tested compound. Briefly, the agar dilution method involved preparing a series of concentrations of each compound (e.g., nicotinamide, benzoyl peroxide, adapalene, metronidazole, DGLA, 15-OHEPA, and 15-HETrE) in a Reinforced Clostridial Agar (RCA) media that facilitates growth of P. acnes under anaerobic conditions. An inoculum of P. acnes was prepared by incubation of P. acnes for approximately seven days at 35-37° C. to achieve a ≧1.0 OD600 inoculum of P. acnes in RCM broth. A portion of this inoculum was then added to the surface of each plate as a 10 μL spot and incubated at 35-37° C. for 72 hours or more. Growth of P. acnes was then observed and compared to control plates in which no compound has been added, and positive inhibition plates prepared with erythromycin. […] The growth of P. acnes in the presence of nicotinamide, benzoyl peroxide, adapalene, metronidazole, DGLA, 15-OHEPA, and 15-HETrE was determined with varying concentrations of the compound (see, Table 2). Next, the MIC was determined as the concentration at which a marked reduction (+) occurs in the appearance of growth on the test plate (as per Clinical and Laboratory Standards Institute M11-A7).
The compounds tested singly in Example 1 were tested in combination with one another to determine the capacity of the combination to inhibit the growth of P. acnes. In an exemplary method, the MIC was determined for each of the combination as described in Example 1. Briefly, test combinations included DGLA with nicotinamide, benzoyl peroxide, adapalene, or metronidazole; 15-HETrE with nicotinamide, benzoyl peroxide, adapalene, or metronidazole; and 15-OHEPA with nicotinamide, benzoyl peroxide, adapalene, or metronidazole. The tables below show the growth of P. acnes in the presence of 0.4 or 1.0 mg/mL DGLA with varying concentrations of nicotinamide, benzoyl peroxide, adapalene, or metronidazole (Table 3); the growth of P. acnes in the presence of 0.01 or 0.05 mg/mL 15-HETrE with varying concentrations of nicotinamide, benzoyl peroxide, adapalene, or metronidazole (Table 5); and the growth of P. acnes in the presence of 0.5 or 0.1 mg/mL 15-OHEPA with varying concentrations of nicotinamide, benzoyl peroxide, adapalene, or metronidazole (Table 7).

[1] = compound at 0.2 mg/mL + 0.01 mg/mL 15-HETrE
[2] = compound at 0.2 mg/mL + 0.05 mg/mL 15-HETrE
[3] = compound at 0.2 mg/mL + 0.05 mg/mL 15-OHEPA
[4] = compound at 0.2 mg/mL + 0.1 mg/mL 15-OHEPA
[5] = compound at 0.2 mg/mL + 0.4 mg/mL dGLA
[6] = compound at 0.2 mg/mL + 1.0 mg/mL dGLA
[7] = compound at 0.4 mg/mL + 0.01 mg/mL 15-HETrE
[8] = compound at 0.4 mg/mL + 0.05 mg/mL 15-HETrE
[9] = compound at 0.4 mg/mL + 0.05 mg/mL 15-OHEPA
[10] = compound at 0.4 mg/mL + 0.1 mg/mL 15-OHEPA
[11] = compound at 0.4 mg/mL + 0.4 mg/mL dGLA
[12] = compound at 0.4 mg/mL + 1.0 mg/mL dGLA
[13] = compound at 0.6 mg/mL + 0.01 mg/mL 15-HETrE
[14] = compound at 0.6 mg/mL + 0.05 mg/mL 15-HETrE
[15] = compound at 0.6 mg/mL + 0.05 mg/mL 15-OHEPA
[16] = compound at 0.6 mg/mL + 0.1 mg/mL 15-OHEPA
[17] = compound at 0.6 mg/mL + 0.4 mg/mL dGLA
[18] = compound at 0.6 mg/mL + 1.0 mg/mL dGLA
[19] = compound at 0.8 mg/mL + 0.01 mg/mL 15-HETrE
[20] = compound at 0.8 mg/mL + 0.05 mg/mL 15-HETrE
[21] = compound at 0.8 mg/mL + 0.05 mg/mL 15-OHEPA
[22] = compound at 0.8 mg/mL + 0.1 mg/mL 15-OHEPA
[23] = compound at 0.8 mg/mL + 0.4 mg/mL dGLA
[24] = compound at 0.8 mg/mL + 1.0 mg/mL dGLA
[25] = compound at 1.0 mg/mL + 0.01 mg/mL 15-HETrE
[26] = compound at 1.0 mg/mL + 0.05 mg/mL 15-HETrE
[27] = compound at 1.0 mg/mL + 0.05 mg/mL 15-OHEPA
[28] = compound at 1.0 mg/mL + 0.1 mg/mL 15-OHEPA
[29] = compound at 1.0 mg/mL + 0.4 mg/mL dGLA
[30] = compound at 1.0 mg/mL + 1.0 mg/mL dGLA

O=C(OOC(=O)c1ccccc1)c1ccccc1 [Benzoyl Peroxide]
++: Growth Index Avg [6] | Growth Index Plate 1 [6] | Growth Index Plate 2 [6] | Growth Index Avg [9] | Growth Index Plate 1 [9] | Growth Index Plate 2 [9] | Growth Index Plate 3 [9] | Growth Index Avg [13] | Growth Index Plate 1 [13] | Growth Index Plate 2 [13] | Growth Index Plate 3 [13]
+++: Growth Index Avg [1] | Growth Index Plate 1 [1] | Growth Index Plate 2 [1] | Growth Index Plate 3 [1] | Growth Index Avg [3] | Growth Index Plate 1 [3] | Growth Index Plate 2 [3] | Growth Index Plate 3 [3] | Growth Index Avg [5] | Growth Index Plate 1 [5] | Growth Index Plate 2 [5] | Growth Index Plate 3 [5] | Growth Index Avg [7] | Growth Index Plate 1 [7] | Growth Index Plate 2 [7] | Growth Index Plate 3 [7]
−: Growth Index Avg [2] | Growth Index Plate 1 [2] | Growth Index Plate 2 [2] | Growth Index Plate 3 [2] | Growth Index Avg [4] | Growth Index Plate 1 [4] | Growth Index Plate 2 [4] | Growth Index Plate 3 [4] | Growth Index Avg [8] | Growth Index Plate 1 [8] | Growth Index Plate 2 [8] | Growth Index Plate 3 [8] | Growth Index Avg [10] | Growth Index Plate 1 [10] | Growth Index Plate 2 [10] | Growth Index Plate 3 [10] | Growth Index Avg [11] | Growth Index Plate 2 [11] | Growth Index Plate 3 [11] | Growth Index Avg [12] | Growth Index Plate 1 [12] | Growth Index Plate 3 [12] | Growth Index Avg [14] | Growth Index Plate 1 [14] | Growth Index Plate 2 [14] | Growth Index Plate 3 [14] | Growth Index Avg [16] | Growth Index Plate 1 [16] | Growth Index Plate 2 [16] | Growth Index Plate 3 [16] | Growth Index Avg [17] | Growth Index Plate 1 [17] | Growth Index Plate 2 [17] | Growth Index Plate 3 [17] | Growth Index Avg [18] | Growth Index Plate 1 [18] | Growth Index Plate 2 [18] | Growth Index Plate 3 [18] | Growth Index Avg [20] | Growth Index Plate 1 [20] | Growth Index Plate 2 [20] | Growth Index Plate 3 [20] | Growth Index Avg [21] | Growth Index Plate 1 [21] | Growth Index Plate 2 [21] | Growth Index Plate 3 [21] | Growth Index Avg [22] | Growth Index Plate 1 [22] | Growth Index Plate 2 [22] | Growth Index Plate 3 [22] | Growth Index Avg [23] | Growth Index Plate 1 [23] | Growth Index Plate 2 [23] | Growth Index Plate 3 [23] | Growth Index Avg [24] | Growth Index Plate 1 [24] | Growth Index Plate 2 [24] | Growth Index Plate 3 [24] | Growth Index Avg [25] | Growth Index Plate 1 [25] | Growth Index Plate 2 [25] | Growth Index Plate 3 [25] | Growth Index Avg [26] | Growth Index Plate 1 [26] | Growth Index Plate 2 [26] | Growth Index Plate 3 [26] | Growth Index Avg [27] | Growth Index Plate 1 [27] | Growth Index Plate 2 [27] | Growth Index Plate 3 [27] | Growth Index Avg [28] | Growth Index Plate 1 [28] | Growth Index Plate 2 [28] | Growth Index Plate 3 [28] | Growth Index Avg [29] | Growth Index Plate 1 [29] | Growth Index Plate 2 [29] | Growth Index Plate 3 [29] | Growth Index Avg [30] | Growth Index Plate 1 [30] | Growth Index Plate 2 [30] | Growth Index Plate 3 [30]
+: Growth Index Plate 3 [6] | Growth Index Plate 1 [11] | Growth Index Plate 2 [12] | Growth Index Avg [15] | Growth Index Plate 1 [15] | Growth Index Plate 2 [15] | Growth Index Plate 3 [15] | Growth Index Avg [19] | Growth Index Plate 1 [19] | Growth Index Plate 2 [19] | Growth Index Plate 3 [19]
did not reduce the growth: growth of P. Acnes in combination with 15-HETrE, compared with 15-HETrE used alone (in combination with 15-HETrE)

From US20130274338A1, “PHARMACEUTICAL COMPOSITIONS COMPRISING DGLA, 15-OHEPA, AND/OR 15-HETRE AND METHODS OF REDUCING SEBUM PRODUCTION USING SAME” (priority 2012, published 2013)
